Source: ChEMBL document CHEMBL3112408, “1,2,3-triazole-, arylamino- and thio-substituted 1,4-naphthoquinones: potent antitumor activity, electrochemical aspects, and bioisosteric replacement of C-ring-modified lapachones” (Bioorg Med Chem, 2014)

Legend:
L929 = assay: Cytotoxicity against mouse L929 cells assessed as cell viability after 72 hrs by MTT assay; assay type: ADME, cell-based; settings: L929, 72 h
V79 = assay: Cytotoxicity against chinese hamster V79 cells assessed as cell viability after 72 hrs by MTT assay; assay type: cell-based; settings: Cricetulus griseus, V79, 72 h
PBMC = assay: Cytotoxicity against human PBMC assessed as cell viability after 72 hrs by MTT assay; assay type: cell-based
[1] = Cytotoxicity against human Hs578T cells assessed as cell viability after 72 hrs by MTT assay; assay type: functional, cell-based; settings: Hs-578T
MX1 = assay: Cytotoxicity against human MX1 cells assessed as cell viability after 72 hrs by MTT assay; assay type: functional, cell-based; settings: MX1, 72 h
MCF7 = assay: Cytotoxicity against human MCF7 cells assessed as cell viability after 72 hrs by MTT assay; assay type: functional, cell-based; settings: MCF7, 72 h
DU-145 = assay: Cytotoxicity against human DU145 cells assessed as cell viability after 72 hrs by MTT assay; assay type: functional, cell-based; settings: DU-145, 72 h
PC-3 = assay: Cytotoxicity against human PC3 cells assessed as cell viability after 72 hrs by MTT assay; assay type: functional, cell-based; settings: PC-3, 72 h
HCT-116 = assay: Cytotoxicity against human HCT116 cells assessed as cell viability after 72 hrs by MTT assay; assay type: functional, cell-based; settings: HCT-116, 72 h
[2] = Cytotoxicity against human HCT8 cells assessed as cell viability after 72 hrs by MTT assay; assay type: functional, cell-based; settings: HCT-8, 72 h
MDA-MB-435 = assay: Cytotoxicity against human MDA-MB-435 cells assessed as cell viability after 72 hrs by MTT assay; assay type: functional, cell-based; settings: MDA-MB-435, 72 h
SF-295 = assay: Cytotoxicity against human SF295 cells assessed as cell viability after 72 hrs by MTT assay; assay type: functional, cell-based; settings: SF-295, 72 h
OVCAR-8 = assay: Cytotoxicity against human OVCAR8 cells assessed as cell viability after 72 hrs by MTT assay; assay type: functional, cell-based; settings: OVCAR-8, 72 h
HL-60 = assay: Cytotoxicity against human HL60 cells assessed as cell viability after 72 hrs by MTT assay; assay type: functional, cell-based; settings: HL-60, 72 h

Structure (SMILES) | IC50 (L929) | IC50 (V79) | IC50 (PBMC) | IC50 [1] | IC50 (MX1) | IC50 (MCF7) | IC50 (DU-145) | IC50 (PC-3) | IC50 (HCT-116) | IC50 [2] | IC50 (MDA-MB-435) | IC50 (SF-295) | IC50 (OVCAR-8) | IC50 (HL-60)
CCCCCc1cn(C2CC(C)(C)OC3=C2C(=O)c2ccccc2C3=O)nn1 (centres undefined) | 4.98 µM | 5.59 µM | 7.77 µM | 3.08 µM | 2.4 µM | 3.16 µM | 2.48 µM | 3.66 µM | 4.93 µM | 4.45 µM | 2.77 µM | 2.77 µM | 6.67 µM | 1.37 µM
CC1(C)CC(Nc2ccc(Cl)cc2)C2=C(O1)C(=O)c1ccccc1C2=O (centres undefined) | 1.85 µM | 1.5 µM | 0.52 µM | 0.6 µM | 0.76 µM | 0.98 µM | 1.17 µM | 1 µM | 0.54 µM | 0.65 µM | 1 µM | 0.71 µM | 1.47 µM | 0.98 µM
COc1cccc2c1C(=O)c1c(O)c3c(c(O)c1C2=O)C[C@@](O)(C(=O)CO)C[C@@H]3O[C@H]1C[C@H](N)[C@H](O)[C@H](C)O1 [DOXORUBICIN] |  | 0.24 µM |  | 0.37 µM | 0.5 µM |  | 0.53 µM |  |  | 0.13 µM |  |  | 0.35 µM | 
CC(=O)OC[C@H]1OC(n2cc(CNC3=CC(=O)c4ccccc4C3=O)nn2)[C@H](OC(C)=O)[C@@H](OC(C)=O)[C@@H]1OC(C)=O (single isomer, unassigned) | > 8 µM | > 8 µM | > 8 µM | > 8 µM | > 8 µM | > 8 µM | > 8 µM | > 8 µM | > 8 µM | > 8 µM | > 8 µM | > 8 µM | > 8 µM | > 8 µM
CC1(C)OC2=C(C(=O)c3ccccc3C2=O)C1n1cc(-c2ccccc2)nn1 (centres undefined) | 8.4 µM | 7.62 µM | 8.02 µM | 5.76 µM | 5.92 µM | 6.95 µM | 4.68 µM | 5.82 µM | 8.27 µM | 9.07 µM | 4.95 µM | 3.44 µM | 7.22 µM | 4.34 µM
CC(=O)OC[C@H]1OC(n2cc(CNC3=C(Br)C(=O)c4ccccc4C3=O)nn2)[C@H](OC(C)=O)[C@@H](OC(C)=O)[C@@H]1OC(C)=O (some centres undefined) | 3.66 µM | 3.59 µM | 4.76 µM | 3.68 µM | 3.59 µM | 2.91 µM | 4.07 µM | > 7 µM | 4.39 µM | 2.2 µM | 2.67 µM | 2.83 µM | 2.8 µM | 1.19 µM
CC1(C)CC(Nc2ccc(Br)cc2)C2=C(O1)C(=O)c1ccccc1C2=O (centres undefined) | 2.38 µM | 2.55 µM | 2.89 µM | 6.4 µM | 6.33 µM | 4.97 µM | 6.72 µM | 5.41 µM | 5.84 µM | 5.31 µM | 5.24 µM | 6.38 µM | 5.53 µM | 4.73 µM
CC1(C)CC(n2cc(C3CCCCC3)nn2)C2=C(O1)C(=O)c1ccccc1C2=O (centres undefined) | 12.5 µM | 12 µM | > 12 µM | 10.9 µM | > 12 µM | > 12 µM | 11.7 µM | 11.2 µM | 10.5 µM | 12.3 µM | 10.7 µM | 11.3 µM | 15.1 µM | 10.4 µM
CCC(C)(O)c1cn(C2CC(C)(C)OC3=C2C(=O)c2ccccc2C3=O)nn1 (centres undefined) | 3.85 µM | 4.06 µM | 4.77 µM | 3.04 µM | 3.41 µM | 3.12 µM | 3.36 µM | 3.07 µM | 3.2 µM | 2.73 µM | 2.1 µM | 4.22 µM | 4.77 µM | 2.12 µM
CC1(C)CC(Nc2cccc([N+](=O)[O-])c2)C2=C(O1)C(=O)c1ccccc1C2=O (centres undefined) | 4.62 µM | 3.86 µM | 4.84 µM |  |  |  |  |  | 8.48 µM | 6.42 µM | 1.45 µM | 1.51 µM |  | 1.51 µM
CC1(C)CC(Sc2ccccc2)C2=C(O1)C(=O)c1ccccc1C2=O (centres undefined) | > 14 µM | > 14 µM | > 14 µM | 4.61 µM | 11.8 µM | 13.3 µM | > 14 µM | > 14 µM | > 14 µM | > 14 µM |  | > 14 µM | > 14 µM | 2.91 µM
